Consider 20 compounds from patent US4959393A, “Skin depigmental agent” (priority 1988, dated 1990).

Where two headings read alike, the source gives them in different places. A value given as a limit tells only on which side of the number the result lay.

For data set [1], the system named is tyrosinase. Briefly: Measurement of Tyrosine Hydroxylation Activity (formation of dopa from tyrosine). The class given is biochemical. As to conditions: L-tyrosine 1×10^-4 M; 200 units mushroom tyrosinase; absorbance at 280 nm; control 1.83. From the text: (§1) Tyrosinase is a copper-containing enzyme which controls synthesis of melanin from starting tyrosine. This enzyme is considered to act as a catalyst for the formation of dopa, dopaquinone and indole-5,6-quinone which are, respectively, intermediates for the synthesis of melanin. We measured activities of the resorcinol derivatives of the formula (1) on inhibition of the formation reactions of the former two intermediates, i.e. the formation reaction of dopa (tyrosine hydroxylase) from tyrosine and the formation reaction of dopa quinone (dopa oxidase) from the dopa. From this, the activity on the tyrosinase activity inhibition was determined.
(1) Measurement of Tyrosine Hydroxylation Activity
(§2) The presence or absence of UV absorptions of the substrate and the substance to be detected was confirmed, after which […] of tyrosinase (Mushroom, 200 units, made by Sigma Co., Ltd.) was added for starting the reaction. The variation in absorbance at 280 nm which is a maximum absorption of L-dopa was measured. The tyrosine hydroxylation activity was indicated a nmol dopa/min/mg of protein. The amount of the protein was measured according to Lowry's method.

For data set [2], the system named is tyrosinase. The experiment in a line: Measurement of Dopa Oxidation Activity (formation of dopa quinone from dopa). The class given is biochemical, Mushroom. The conditions noted are these: L-dopa 5×10^-3 M; 10 units tyrosinase; 475 nm; control 15.80.
Excerpt: as §1, §2
(2) Measurement of Dopa Oxidation Activity
The general procedure of Measurement (1) was repeated except that L-dopa (5×10^-3 M) was used as a that produced dopa chrome was measured at a wavelength of 475 nm, and that 10 units of tyrosinase were used.
The dopa oxidation activity was indicated as μmol of dopa chrome/min/mg of protein.

The test system of data set [3] is salmonella typhimuria. As to conditions: Ames test using salmonella typhimuria. Background: In the Ames test, an excess of revertant colonies over the control signals mutagenicity.
In data set [4] the test system is skin. The conditions noted are these: cited from earlier work.
A short description of data set [5]: in vivo. As to conditions: mouse, ddy male mice. The procedure:
The life or death of the mice before 24 hours was observed. The value of LD50 was calculated according to the Litchfield-Wilcoxom method using the above results.

The mark [6] stands for this setting: ip, intraperitoneal, read-out: LD50 i.p.
Setting [7] is: po, peroral, read-out: LD50 p.o.
Where [8] appears, read: sc, subcutaneous, read-out: LD50 s.c.

For `Cc1ccc(O)cc1O` [Comparative Experiment 1, reference compound], the “Activity (tyrosine hydroxylation activity)” value in data set [1] is 1.78 nmol dopa/min/mg of protein.

Consider `CCCCc1ccc(O)cc1O` [Experiment 2], for which the “Activity (tyrosine hydroxylation activity)” value in data set [1] is 0.00 nmol dopa/min/mg of protein. Same read-out and setting: with `CC(C)CCc1ccc(O)cc1O` [Experiment 3] the figure was 0.00 nmol dopa/min/mg of protein.

Regarding `CCCCCCc1ccc(O)cc1O` [Experiment 4], the “Activity (tyrosine hydroxylation activity)” value in data set [1] is reported as 0.00 nmol dopa/min/mg of protein. `CCCCCCCCc1ccc(O)cc1O` [Experiment 5]: the “Activity (tyrosine hydroxylation activity)” value in data set [1] is 0.00 nmol dopa/min/mg of protein. For `CCCCCCCCCCCCc1ccc(O)cc1O` [Experiment 6], the “Activity (tyrosine hydroxylation activity)” value in data set [1] is on record as 0.33 nmol dopa/min/mg of protein. In the case of `CCc1ccc(O)cc1O` [Experiment 7], the “Activity (dopa oxidation activity)” value in data set [2] is reported as 7.44 μmol of dopa chrome/min/mg of. Consider `CCCCc1ccc(O)cc1O` [Experiment 8], for which, in data set [2], the “Activity (dopa oxidation activity)” value is listed as 0.00 μmol of dopa chrome/min/mg of. Consider `CC(C)CCc1ccc(O)cc1O` [Experiment 9], for which the “Activity (dopa oxidation activity)” value in data set [2] was 0.00 μmol of dopa chrome/min/mg of. On to `CCCCCCc1ccc(O)cc1O` [Experiment 10], for which, in data set [2], the “Activity (dopa oxidation activity)” value is recorded as 0.00 μmol of dopa chrome/min/mg of.

In the case of `CCCCCCCCc1ccc(O)cc1O` [Experiment 11], the “Activity (dopa oxidation activity)” value in data set [2] was 0.00 μmol of dopa chrome/min/mg of. On to `CCCCCCCCCCCCc1ccc(O)cc1O` [Experiment 12], for which the “Activity (dopa oxidation activity)” value in data set [2] is listed as 7.19 μmol of dopa chrome/min/mg of.

`CC(C)CCc1ccc(O)cc1O` [Isoamyl resorcinol, 4-Isoamyl resorcinol]: the “variability (Ames test)” value in data set [3] was “no variability”. Turning to `N[C@@H](CS)C(=O)O` [cysteine], the depigmental effect result in data set [4] is given as “do not exhibit a satisfactory depigmental effect since the development of the effect is very slow”. In the case of `CCc1ccc(O)cc1O` [drawing 2], in data set [1], the “Activity (tyrosine hydroxylation activity)” value was 0.00 nmol dopa/min/mg of protein. As to `Cc1ccc(O)cc1O` [drawing 15, reference compound], in data set [2], the “Activity (dopa oxidation activity)” value is 16.81 μmol of dopa chrome/min/mg of. On to `CCCCCCc1ccc(O)cc1O` [drawing 16], for which the LD50 (as a rule, the dose expected to kill half of the subjects tested) at 24 h in data set [5] (setting [6]) is 335 mg/kg; in data set [5] (setting [7]) it was above 500 mg/kg; in data set [5] (setting [8]) it was above 500 mg/kg.

As for `CC(C)CCc1ccc(O)cc1O` [drawing 17], the LD50 at 24 h in data set [5] (setting [6]) is 269 mg/kg; in data set [5] (setting [7]), above 500 mg/kg; in data set [5] (setting [8]) it was above 500 mg/kg. Take `N[C@@H](CCC(=O)N[C@@H](CS)C(=O)NCC(=O)O)C(=O)O` [glutathione]: in data set [4], the depigmental effect result was “do not exhibit a satisfactory depigmental effect since the development of the effect is very slow”. On to `Oc1ccc(O)cc1` [hydroquinone, reference compound], for which, in data set [2], the “Activity (dopa oxidation activity)” value is 26.94 μmol of dopa chrome/min/mg of. Further, the “Activity (tyrosine hydroxylation activity)” value in data set [1] is 0.00 nmol dopa/min/mg of protein.
